Measurements from patent US9399631B2, “Polyphenol proteasome inhibitors, synthesis, and methods of use” (UNIVERSITY OF SOUTH FLORIDA, priority 2003, dated 2016).

Tests used:
[1] = tested on: NK cells (YT cell line); test: Western blot of proteasome target proteins in non-transformed NK cells (YT line); format: cell-based, human; settings: treatment up to 12 hour
Experimental: Cell Culture, Cell Extract Preparation, and Western Blot Assay. Human leukemia Jurkat T and prostate cancer LNCaP cells were cultured in RPMI 1640 medium supplemented with 10% fetal calf serum, 100 units/ml of penicillin, and 100 μg/ml streptomycin. Human immortalized, non-transformed NK cells (YT cell line) (38) were cultured in RPMI 1640 supplemented with 1 mM MEM sodium pyruvate solution, 0.1 mM MEM non-essential amino acids solution, 10% fetal calf serum. 100 units/ml penicillin, and 100 μg/ml streptomycin. Normal (WI-38) and simian virus 40 (SV40)-transformed (VA-13) human fibroblasts were grown in Dulbecco's modified Eagle's medium supplemented with 10% fetal calf serum, 100 units/ml of penicillin and 100 μg/ml of streptomycin. All cells were maintained at 37° C. in a humidified incubator with an atmosphere of 5% CO2. A whole cell extract was prepared in accordance with An et al. (An, B. et al. Cell Death Differ, 1998, 5:1062-75). Briefly, cells were harvested, washed with PBS twice, and homogenized in a lysis buffer [50 mM Tris-HCl (pH 8.0), 5 mM EDTA, 150 mM NaCl, 0.5% NP-40, 0.5 mM phenylmethylsulfonyl fluoride, and 0.5 mM dithiothreitol] for 30 min at 4° C. Afterwards, lysates were centrifuged at 12,000×g for 15 min at 4° C., and the supernatants were collected as whole cell extracts. Equal amounts of protein extract (60 μg) were resolved by SDS-polyacrylamide gel electrophoresis and transferred to a nitrocellulose membrane using a Semi-Dry Transfer system (BIO-RAD, Hercules, Calif.). Jurkat T, LNCaP, or DU-145 cells were treated with various concentrations of synthetic or natural tea polyphenols for indicted hours. The enhanced chemiluminescence (ECL) Western blot analysis was then performed using specific antibodies to the proteins of interest (p^27kip, IκB-α, PARP, Bax or actin). The ratio of p27 or IκB-α to the corresponding actin was determined by scanning intensities of the protein bands. […]

[2] = tested on: LNCaP cells; test: Western blot of proteasome target proteins in LNCaP cells; format: cell-based, human; settings: for increase of IκB-α levels / increase of p27 levels / Bax protein levels / apoptosis-specific PARP cleavage: 10 μM; for increase of IκB-α levels / increase of p27 levels: 12 hour treatment; for Bax protein levels / apoptosis-specific PARP cleavage: 24 hours
Outline: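 LNCaP cells exposed to 25 μM (−)- or (+)-EGCG-amide for up to 9 h, or synthetic analogs for indicated hours. Whole-cell extracts (60 μg protein) probed by ECL Western blot for p27, IκB-α, Bax and polyubiquitinated proteins; p27 or IκB-α quantified as ratio to actin band intensity.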

[3] = tested on: 26S proteasome in a Jurkat cell lysate; test: Chymotrypsin-like activity of 26S proteasome in Jurkat cell lysate; format: biochemical, human; settings: 10 μM
Experimental: To determine the specificity of the synthetic GTP analogs, their effects were tested on the chymotrypsin-like and trypsin-like activities of the 26S proteasome in a Jurkat cell lysate. […] (+)-GCG at the same concentration inhibited ˜50% of the chymotrypsin-like activity. The potencies of (+)-EGCG and (+)-GCG were similar to those of their natural partners, respectively (FIG. 17A). […] Furthermore, none of the synthetic or control natural compounds could inhibit more than 15% of activity of a purified calpain enzyme (FIG. 17C). […] Values are mean triplicates and error bars denote standard deviations.

[4] = target: purified 20S proteasome (UniProt Q9P992); test: Inhibition of chymotrypsin-like activity of purified 20S proteasome (source not stated); format: biochemical; parameters: other: 1 μM; other: 10 μM; settings: 1 μM
Experimental: Inhibition of purified 20S proteasome activity by natural or synthetic GTPs. Purified prokaryotic (0.5 μg) or eukaryotic (0.02 μg) 20S proteasome was incubated with 20 μM fluorogenic peptide substrate, Suc-Leu-Leu-Val-Tyr-AMC for 30 min at 37° C. in […] of assay buffer (50 mM Tris-HCl, pH 7.5), with or without a natural or synthetic tea polyphenol. After incubation, production of hydrolyzed 7-amido-4-methyl-coumarin (AMC) groups was measured using a multi-well plate VERSAFLUOR Fluorometer with an excitation filter of 380 nm and an emission filter of 460 nm (BIO-RAD), and a multi-well plate reader Wallac 1420 VICTORTM^2 with an excitation filter of 355 nm and an emission filter of 460 nm (EG&G WALLAC).

[5] = tested on: DU145 cells; test: Western blot of Bax and PARP in DU145 cells; format: cell-based, human; settings: 10 μM, 24 hours
Experimental: Cell Culture, Cell Extract Preparation, and Western Blot Assay. Human leukemia Jurkat T and prostate cancer LNCaP cells were cultured in RPMI 1640 medium supplemented with 10% fetal calf serum, 100 units/ml of penicillin, and 100 μg/ml streptomycin. Human immortalized, non-transformed NK cells (YT cell line) (38) were cultured in RPMI 1640 supplemented with 1 mM MEM sodium pyruvate solution, 0.1 mM MEM non-essential amino acids solution, 10% fetal calf serum. 100 units/ml penicillin, and 100 μg/ml streptomycin. Normal (WI-38) and simian virus 40 (SV40)-transformed (VA-13) human fibroblasts were grown in Dulbecco's modified Eagle's medium supplemented with 10% fetal calf serum, 100 units/ml of penicillin and 100 μg/ml of streptomycin. All cells were maintained at 37° C. in a humidified incubator with an atmosphere of 5% CO2. A whole cell extract was prepared in accordance with An et al. (An, B. et al. Cell Death Differ, 1998, 5:1062-75). […] The ratio of p27 or IκB-α to the corresponding actin was determined by scanning intensities of the protein bands.
Exponentially growing LNCaP and DU-145 prostate cells were harvested and the levels of Bax protein was detected by Western blot analysis (FIG. 20A). […]

purified 20S proteasome, sequence (Q9P992 whole entry): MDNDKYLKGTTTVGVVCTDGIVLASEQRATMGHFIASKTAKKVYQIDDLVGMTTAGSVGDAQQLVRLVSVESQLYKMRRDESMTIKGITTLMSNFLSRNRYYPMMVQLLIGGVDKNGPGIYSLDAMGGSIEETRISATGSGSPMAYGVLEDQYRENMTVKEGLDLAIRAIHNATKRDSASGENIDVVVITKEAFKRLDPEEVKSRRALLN

SMILES | IκB-α expression [1] | levels of p27, IκB-α and Bax ([2]; 25 μM, up to 9 hours) | inhibition of chymotrypsin-like activity of 26S proteasome [3] [%] | inhibition of proteasomal activity [4] [%] | increase of IκB-α levels [2] [fold] | increase of p27 levels [2] [fold] | Bax protein levels [5] | Bax protein levels [2] | apoptosis-specific PARP cleavage [2] | p27 expression [1] | levels of Bax protein ([2]; 50 μM, 3 to 12 hours)
O=C(N[C@@H]1Cc2c(O)cc(O)cc2O[C@@H]1c1cc(O)c(O)c(O)c1)c1cc(O)c(O)c(O)c1 [(−)-EGCG-amide, (−)-[2R,3R]-N-[5,7-Dihydroxy-2-(3,4,5-trihydroxyphenyl)-chroman-3-yl]-3,4,5-trihydroxybenzamide] | unchanged | able to increase levels of p27, IκB-α and Bax by 3 hours | – | – | – | – | – | – | – | – | –
O=C(OC1Cc2c(O)cc(O)cc2OC1c1cc(O)c(O)c(O)c1)c1cc(O)c(O)c(O)c1 (single isomer, unassigned; (+)) [(+)-GCG] | – | – | ~50 | 70 | 3.7 | 5.8 | – | – | – | – | –
O=C(OC1Cc2c(O)cc(O)cc2OC1c1cc(O)c(O)c(O)c1)c1cc(O)c(O)c(O)c1 (single isomer, unassigned; (+)) [(+)-EGCG] | – | – | 76 | 86 | 2.6 | 3.1 | neither (+)-EGCG nor (−)-EGCG was able to increase the levels of Bax protein | significantly increased Bax protein levels | induced the apoptosis-specific PARP cleavage | – | –
O=C(O[C@@H]1Cc2c(O)cc(O)cc2O[C@@H]1c1cc(O)c(O)c(O)c1)c1cc(O)c(O)c(O)c1 [(−)-EGCG, (−)-epigallocatechin-3-gallate, reference compound] | unchanged | – | – | – | – | – | neither (+)-EGCG nor (−)-EGCG was able to increase the levels of Bax protein | significantly increased Bax protein levels | induced the apoptosis-specific PARP cleavage | no p27 expression was detected | increased only at 12 hours
